In patent US20180036289A1 (Gilead Sciences, Inc., priority 2016, published 2018):

Key:
Assay in all cases: Cell proliferation assay (ATPlite), drug with vs without cobicistat
Assay type in all cases: cell-based
SW48 = SW48 cell line; 120 hours incubation
In short: (§1)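 Nine-point compound titrations, 3.16×10^−5 M to 3.16×10^−9 M, were applied in duplicate to cells seeded one day earlier at 200–3200 per well.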

A-549 = A-549 cell line; 120 hours incubation
In short: as §1

769-P = 769-P cell line; 120 hours incubation
In short: as §1

AN3 CA = AN3 CA cell line; 120 hours incubation
In short: as §1

AU-565 = AU-565 cell line; 120 hours incubation
In short: as §1

HCT 116 = HCT 116 cell line; 120 hours incubation
In short: as §1

K-562 = K-562 cell line; 120 hours incubation
In short: as §1

MG-63 = MG-63 cell line; 120 hours incubation
In short: as §1

U-87 MG = U-87 MG cell line; 120 hours incubation
In short: as §1

A-704 = A-704 cell line; 120 hours incubation
In short: as §1

DLD-1 = DLD-1 cell line; 120 hours incubation
In short: as §1

COLO 205 = COLO 205 cell line; 120 hours incubation
In short: as §1

786-O = 786-O cell line; 120 hours incubation
In short: as §1

SK-N-FI = SK-N-FI cell line; 120 hours incubation
In short: as §1

PA-1 = PA-1 cell line; 120 hours incubation
In short: as §1

HCT-15 = HCT-15 cell line; 120 hours incubation
In short: as §1

SR = SR cell line; 120 hours incubation
In short: as §1

SJCRH30 = SJCRH30 cell line; 120 hours incubation
In short: as §1

SUP-T1 = SUP-T1 cell line; 120 hours incubation
In short: as §1

A-427 = A-427 cell line; 120 hours incubation
In short: as §1

A-204 = A-204 cell line; 120 hours incubation
In short: as §1

RPMI-7951 = RPMI-7951 cell line; 120 hours incubation
In short: as §1

LoVo = LoVo cell line; 120 hours incubation
In short: as §1

T98G = T98G cell line; 120 hours incubation
In short: as §1

BT-549 = BT-549 cell line; 120 hours incubation
In short: as §1

MeWo = MeWo cell line; 120 hours incubation
In short: as §1

OVCAR-3 = OVCAR-3 cell line; 120 hours incubation
In short: as §1

Hs 578T = Hs 578T cell line; 120 hours incubation
In short: as §1

ACHN = ACHN cell line; 120 hours incubation
In short: as §1

A375 = A375 cell line; 120 hours incubation
In short: as §1

| Compound | Fold change in IC50 (IC50 [Drug + Cobicistat]/IC50 [Drug]) (SW48) [fold] | Fold change in IC50 (IC50 [Drug + Cobicistat]/IC50 [Drug]) (A-549) [fold] | Fold change in IC50 (IC50 [Drug + Cobicistat]/IC50 [Drug]) (769-P) [fold] | Fold change in IC50 (IC50 [Drug + Cobicistat]/IC50 [Drug]) (AN3 CA) [fold] | Fold change in IC50 (IC50 [Drug + Cobicistat]/IC50 [Drug]) (AU-565) [fold] | Fold change in IC50 (IC50 [Drug + Cobicistat]/IC50 [Drug]) (HCT 116) [fold] | Fold change in IC50 (IC50 [Drug + Cobicistat]/IC50 [Drug]) (K-562) [fold] | Fold change in IC50 (IC50 [Drug + Cobicistat]/IC50 [Drug]) (MG-63) [fold] | Fold change in IC50 (IC50 [Drug + Cobicistat]/IC50 [Drug]) (U-87 MG) [fold] | Fold change in IC50 (IC50 [Drug + Cobicistat]/IC50 [Drug]) (A-704) [fold] | Fold change in IC50 (IC50 [Drug + Cobicistat]/IC50 [Drug]) (DLD-1) [fold] | Fold change in IC50 (IC50 [Drug + Cobicistat]/IC50 [Drug]) (COLO 205) [fold] | Fold change in IC50 (IC50 [Drug + Cobicistat]/IC50 [Drug]) (786-O) [fold] | Fold change in IC50 (IC50 [Drug + Cobicistat]/IC50 [Drug]) (SK-N-FI) [fold] | Fold change in IC50 (IC50 [Drug + Cobicistat]/IC50 [Drug]) (PA-1) [fold] | Fold change in IC50 (IC50 [Drug + Cobicistat]/IC50 [Drug]) (HCT-15) [fold] | Fold change in IC50 (IC50 [Drug + Cobicistat]/IC50 [Drug]) (SR) [fold] | Fold change in IC50 (IC50 [Drug + Cobicistat]/IC50 [Drug]) (SJCRH30) [fold] | Fold change in IC50 (IC50 [Drug + Cobicistat]/IC50 [Drug]) (SUP-T1) [fold] | Fold change in IC50 (IC50 [Drug + Cobicistat]/IC50 [Drug]) (A-427) [fold] | further results |
| --- | --- | --- | --- | --- | --- | --- | --- | --- | --- | --- | --- | --- | --- | --- | --- | --- | --- | --- | --- | --- | --- |
| CC(=O)O[C@H]1C(=O)[C@@]2(C)[C@H]([C@H](OC(=O)c3ccccc3)[C@]3(O)C[C@H](OC(=O)[C@H](O)[C@@H](NC(=O)c4ccccc4)c4ccccc4)C(C)=C1C3(C)C)[C@]1(OC(C)=O)CO[C@@H]1C[C@@H]2O [paclitaxel] | 1.4 | 1.0 | 2.9 | 2.9 | 2.7 | 1.0 | 2.4 | 2.4 | 2.2 | 1.5 | 1.9 | 3.0 | 3.0 | 2.5 | 3.9 | 2.4 | 1.8 | 1.6 | 3.5 | 1.2 | Fold change in IC50 (IC50 [Drug + Cobicistat]/IC50 [Drug]) (A-204): 3.6 fold; Fold change in IC50 (IC50 [Drug + Cobicistat]/IC50 [Drug]) (RPMI-7951): 2.9 fold; Fold change in IC50 (IC50 [Drug + Cobicistat]/IC50 [Drug]) (LoVo): 1.3 fold; Fold change in IC50 (IC50 [Drug + Cobicistat]/IC50 [Drug]) (T98G): 5.2 fold; Fold change in IC50 (IC50 [Drug + Cobicistat]/IC50 [Drug]) (BT-549): 1.2 fold; Fold change in IC50 (IC50 [Drug + Cobicistat]/IC50 [Drug]) (MeWo): 2.0 fold; Fold change in IC50 (IC50 [Drug + Cobicistat]/IC50 [Drug]) (OVCAR-3): 1.7 fold; Fold change in IC50 (IC50 [Drug + Cobicistat]/IC50 [Drug]) (Hs 578T): 2.6 fold; Fold change in IC50 (IC50 [Drug + Cobicistat]/IC50 [Drug]) (ACHN): 2.5 fold; Fold change in IC50 (IC50 [Drug + Cobicistat]/IC50 [Drug]) (A375): 2.3 fold |
| CC[C@]1(O)C[C@@H]2CN(CCc3c([nH]c4ccccc34)[C@@](C(=O)OC)(c3cc4c(cc3OC)N(C)[C@H]3[C@@](O)(C(=O)OC)[C@H](OC(C)=O)[C@]5(CC)C=CCN6CC[C@]43[C@@H]65)C2)C1 [vinblastine] | 2.5 | 2.3 | 2.5 | 3.9 | 3.0 | 2.0 | 2.6 | 2.8 | 2.6 | 3.8 | 2.2 | 4.9 | 2.5 | 4.5 | 6.3 | 2.3 | 4.0 | 3.8 | 3.0 | 2.7 | Fold change in IC50 (IC50 [Drug + Cobicistat]/IC50 [Drug]) (A-204): 4.0 fold; Fold change in IC50 (IC50 [Drug + Cobicistat]/IC50 [Drug]) (RPMI-7951): 3.2 fold; Fold change in IC50 (IC50 [Drug + Cobicistat]/IC50 [Drug]) (LoVo): 1.9 fold; Fold change in IC50 (IC50 [Drug + Cobicistat]/IC50 [Drug]) (T98G): 4.9 fold; Fold change in IC50 (IC50 [Drug + Cobicistat]/IC50 [Drug]) (BT-549): 3.3 fold; Fold change in IC50 (IC50 [Drug + Cobicistat]/IC50 [Drug]) (MeWo): 3.2 fold; Fold change in IC50 (IC50 [Drug + Cobicistat]/IC50 [Drug]) (OVCAR-3): 2.6 fold; Fold change in IC50 (IC50 [Drug + Cobicistat]/IC50 [Drug]) (Hs 578T): 3.7 fold; Fold change in IC50 (IC50 [Drug + Cobicistat]/IC50 [Drug]) (ACHN): 3.8 fold; Fold change in IC50 (IC50 [Drug + Cobicistat]/IC50 [Drug]) (A375): 3.4 fold |
| CC[C@]1(O)C[C@H]2CN(CCc3c([nH]c4ccccc34)[C@@](C(=O)OC)(c3cc4c(cc3OC)N(C=O)[C@H]3[C@@](O)(C(=O)OC)[C@H](OC(C)=O)[C@]5(CC)C=CCN6CC[C@]43[C@@H]65)C2)C1 [vincristine] | 2.7 | 1.9 | 3.5 | 4.7 | 3.0 | 1.4 | 3.5 | 3.8 | 3.1 | 2.0 | 2.0 | 4.0 | 2.5 | 2.7 | 4.2 | 2.1 | 3.6 | 3.5 | 3.6 | 1.9 | Fold change in IC50 (IC50 [Drug + Cobicistat]/IC50 [Drug]) (A-204): 4.4 fold; Fold change in IC50 (IC50 [Drug + Cobicistat]/IC50 [Drug]) (RPMI-7951): 4.6 fold; Fold change in IC50 (IC50 [Drug + Cobicistat]/IC50 [Drug]) (LoVo): 1.6 fold; Fold change in IC50 (IC50 [Drug + Cobicistat]/IC50 [Drug]) (T98G): 4.1 fold; Fold change in IC50 (IC50 [Drug + Cobicistat]/IC50 [Drug]) (BT-549): 2.9 fold; Fold change in IC50 (IC50 [Drug + Cobicistat]/IC50 [Drug]) (MeWo): 2.9 fold; Fold change in IC50 (IC50 [Drug + Cobicistat]/IC50 [Drug]) (OVCAR-3): 4.0 fold; Fold change in IC50 (IC50 [Drug + Cobicistat]/IC50 [Drug]) (Hs 578T): 2.8 fold; Fold change in IC50 (IC50 [Drug + Cobicistat]/IC50 [Drug]) (ACHN): 3.4 fold; Fold change in IC50 (IC50 [Drug + Cobicistat]/IC50 [Drug]) (A375): 4.4 fold |
